Data taken from patent US20230285490A1, “ADDITIVE TO FISH FOOD COMPRISING TWO PLANT EXTRACTS AND A SEAWEED (PALMARIA PALMATA) EXTRACT AS TASTE MASKING AGENT; AND A METHOD TO COMBAT/ELIMINATE INFESTATIONS OF CALIGUS BY STERILIZATION OF FEMALE INDIVIDUALS IN FISH FARMING CENTERS AND MARINE CONCESSIONS” (priority 2020, published 2023).

System: ovigerous Caligus females
Assay: In vitro plate bioassay on swimming behavior and survival of ovigerous Caligus females, comparison with emamectin benzoate (Example 7)
Details: 2 hours, 14° C., sea water
Text: However, 75% living females slowly swam, having a slow response to stimulus and adhered to experimentation vessels. • Between 87 and 100% parasites survived in control with solvents (methanol and DMSO) used to prepare each product and in sea water. Under these conditions females actively swam and readily responded to stimulus as bubbles of the aeration system or manipulation with tweezers.

Substance: emamectin benzoate
- Affected and dead Total (%) (15 ovigerous females): 27%
- Affected ovigerous females (15 ovigerous females): 1
- Vivas (living ovigerous females) (15 ovigerous females): 11
- dead ovigerous females (15 ovigerous females): 3
- Affected and dead Total (%) (15 ovigerous females, listed as emamectin benzoate): 25%
- remaining living females with slow/erratic swimming: 75%
